Experiment: Inhibition of Francisella tularensis FabI

| Structure (SMILES) | IC50 [nM] |
| --- | --- |
| C[C@@H](c1ccc(Cl)c(Cl)c1)n1cnc2cc3c(cc21)CCCC3 | 14 |
| C[C@H](c1ccc(Cl)c(Cl)c1)n1cnc2cc3c(cc21)CCCC3 | 7800 |
| C[C@H](c1ccc(Cl)c(Cl)c1)n1cnc2cc3c(cc21)CCC3 | 1840 |
| C[C@@H](c1ccc(Cl)c(Cl)c1)n1cnc2cc3c(cc21)CCC3 | 16 |

Source: ChEMBL document CHEMBL4219258, “Determination of absolute configuration and binding efficacy of benzimidazole-based FabI inhibitors through the support of electronic circular dichroism and MM-GBSA techniques” (Bioorg Med Chem Lett, 2018)
